Data on 35 molecules can be found in patent US10730889B2, “Amido spirocyclic amide and sulfonamide derivatives” (Forma TM, LLC, priority 2012, dated 2020).

This experiment relates to A2780 cells. The experiment in a line: In-vitro cell proliferation assay (SRB, 72 hours). It counts as cell-based. Particulars: Homo sapiens, A2780, 72 h, A2780 cells, 72 hours, SRB; read-out: Cell Proliferation (IC50).
`Cc1cccnc1C(=O)N1CCC2(CC1)CC2CNC(=O)c1cc2ccncc2o1` (centres unmarked) [Example 231, N-[[6-(3-methylpyridine-2-carbonyl)-6-azaspiro[2.5]octan-2-yl]methyl]furo[2,3-c]pyridine-2-carboxamide]: the IC50 amounted to 516 nM.

For `O=C(NCC1CC12CCN(C(=O)Cc1cccnc1)CC2)c1cc2ccncc2o1` (centres unmarked) [Example 39, N-[[6-[2-(3-pyridyl)acetyl]-6-azaspiro[2.5]octan-2-yl]methyl]furo[2,3-c]pyndine-2-carboxamide], the IC50 is 232 nM.

Consider `Cn1cc(-c2ccno2)c(C(=O)N2CCC3(CC2)CC3CNC(=O)c2cc3ccncc3o2)n1` (centres unmarked) [Example 132, N-[[6-(4-isoxazol-5-yl-1-methyl-pyrazole-3-carbonyl)-6-azaspiro[2.5]octan-2-yl]methyl]furo[2,3-c]pyridine-2-carboxamide], for which the IC50 was 7.2 nM.

For `O=C(NCC1CC12CCN(C(=O)c1ccccc1Cn1cncn1)CC2)c1cc2ccncc2o1` (centres unmarked) [Example 250, N-[[6-[2-(1,2,4-triazol-1-ylmethyl)benzoyl]-6-azaspiro[2.5]octan-2-yl]methyl]furo[2,3-c]pyridine-2-carboxamide], the IC50 stood at 2000 nM.

As to `Cc1nocc1C(=O)N1CCC2(CC1)CC2CNC(=O)c1cc2ccncc2o1` (centres unmarked) [Example 139, N-[[6-(3-methylisoxazole-4-carbonyl)-6-azaspiro[2.5]octan-2-yl]methyl]furo[2,3-c]pyridine-2-carboxamide], the IC50 was 2000 nM.

In the case of `O=C(NCC1CC12CCN(C(=O)c1cccnn1)CC2)c1cc2ccncc2o1` (centres unmarked) [Example 110, N-[[6-(pyridazine-3-carbonyl)-6-azaspiro[2.5]octan-2-yl]methyl]furo[2,3-c]pyridine-2-carboxamide], the IC50 was 2000 nM.

Turning to `O=C(NCC1CC12CCN(C(=O)c1ccc(OC(F)(F)F)cc1)CC2)c1cc2ccncc2o1` (centres unmarked) [Example 247, N-[[6-[4-(trifluoromethoxy)benzoyl]-6-azaspiro[2.5]octan-2-yl]methyl]furo[2,3-c]pyridine-2-carboxamide], the IC50 is 2000 nM.

In the case of `N#Cc1cccc(CC(=O)N2CCC3(CC2)CC3CNC(=O)N2Cc3ccncc3C2)c1` (centres unmarked) [Example 178, N-[[6-(2-(3-cyanophenyl)acetyl]-6-azaspiro[2.5]octan-2-yl]methyl]-1,3-dihydropyrrolo(3,4-c]pyridine-2-carboxamide], the IC50 worked out at 32.3 nM.

Regarding `O=C(NCC1CC12CCN(C(=O)CN1CCCC1=O)CC2)c1cc2ccncc2o1` (centres unmarked) [Example 57, N-[[6-[2-(2-oxopyrrolidin-1-yl)acetyl]-6-azaspiro[2.5]octan-2-yl)methyl]furo[2,3-c]pyridine-2-carboxamide], the IC50 came out at 1600 nM.

As to `Cc1cc(C(=O)N2CCC3(CC2)CC3CNC(=O)c2cc3ccncc3o2)ccn1` (centres unmarked) [Example 121, N-[[6-(2-methylpyridine-4-carbonyl)-6-azaspiro[2.5]octan-2-yl]methyl]furo[2,3-c]pyridine-2-carboxamide], the IC50 came to 1090 nM.

As for `O=C(NCC1CC12CCN(C(=O)c1cocn1)CC2)c1cc2ccncc2o1` (centres unmarked) [Example 99, N-[[6-(oxazole-4-carbonyl)-6-azaspiro[2.5]octan-2-yl]methyl]furo[2,3-c]pyridine-2-carboxamide], the IC50 amounted to 2000 nM.

On to `CC1(O)CC(CC(=O)N2CCC3(CC2)CC3CNC(=O)c2cc3ccncc3o2)C1` (centres unmarked) [Example 174, N-([6-[2-(3-hydroxy-3methylcyclobutyl)acetyl]-6-azaspiro[2.5]octan-1-yl]methyl)furo[2,3-c]pyridine-2-carboxamide], for which the IC50 is 197 nM.

Turning to `O=C(NCC1CC12CCN(C(=O)NCc1ccccc1)CC2)c1cc2ccncc2o1` (centres unmarked) [Example 160], the IC50 was determined as 2000 nM.

Take `CC(C)(O)CCC(=O)N1CCC2(CC1)CC2CNC(=O)c1cc2cnccc2[nH]1` (centres unmarked) [Example 397, N-[[6-(4-hydroxy-4-methyl-pentanoyl)-6-azaspiro[2.5]octan-2-yl]methyl]-1H-pyrrolo[3,2-c]pyridine-2-carboxamide]: the IC50 stood at 888 nM.

On to `COC(=O)C(C)(C)OC(=O)N1CCC2(CC1)CC2CNC(=O)c1cc2ccncc2o1` (centres unmarked) [Example 205, (2-methoxy-1,1-dimethyl-2-oxo-ethyl) 2-[(furo[2,3-c]pyridine-2-carbonylamino)methyl]-6-azaspiro[2.5]octane-6-carboxylate], for which the IC50 was 130 nM.

Regarding `O=C(NCC1CC12CCN(C(=O)c1cccc(Cn3ccnc3)c1)CC2)c1cc2ccncc2o1` (centres unmarked) [Example 252, N-[[6-[3-(imidazol-1-ylmethyl)benzoyl]-6-azaspiro[2.5]octan-2-yl]methyl]furo[2,3-c]pyridine-2-carboxamide], the IC50 came to 344 nM.

In the case of `O=C(NCC1CC12CCN(C(=O)CN1CCOCC1)CC2)c1cc2ccncc2o1` (centres unmarked) [Example 51, N-[[6-(2-morpholinoacetyl)-6-azaspiro[2.5]octan-2-yl]methyl]furo[2,3-c]pyridine-2-carboxamide], the IC50 is 367 nM.

With `O=C(NCC1CC12CCN(C(=O)c1n[nH]c3ccccc13)CC2)c1cc2ccncc2o1` (centres unmarked) [Example 302, N-[[6-(1H-indazole-3-carbonyl)-6-azaspiro[2.5]octan-2-yl]methyl]furo(2,3-c]pyridine-2-carboxamide], the IC50 stood at 90.3 nM.

As to `CN(C)C(=O)CCC(=O)N1CCC2(CC1)CC2CNC(=O)c1cc2ccncc2o1` (centres unmarked) [Example 55, N-[[6-[4-(dimethylamino)-4-oxo-butanoyl]-6-azaspiro[2.5]octan-2-yl]methyl]furo[2,3-c]pyridine-2-carboxamide], the IC50 stood at 2000 nM.

`O=C(NCC1CC12CCN(C(=O)C1CCCO1)CC2)c1cc2ccncc2o1` (centres unmarked) [Example 61, N-[[6-(tetrahydrofuran-2-carbonyl)-6-azaspiro[2.5]octan-2-yl]methyl]furo[2,3-c]pyridine-2-carboxamide]: the IC50 amounted to 2000 nM.

For the molecule `O=C(NCC1CC12CCN(C(=O)Cn1ccc(=O)[nH]c1=O)CC2)c1cc2ccncc2o1` (centres unmarked) [Example 81, N-[[6-[2-(2,4-dioxopyrimidin-1-yl)acetyl]-6-azaspiro[2.5]octan-2-yl]methyl]furo[2,3-c]pyridine-2-carboxamide], the IC50 was determined as 2000 nM.

Turning to `O=C(NCC1CC12CCN(C(=O)N1CCOCC1)CC2)N1Cc2ccncc2C1` (centres unmarked) [Example 395, N-[[6-(morpholine-4-carbonyl)-6-azaspiro[2.5]octan-2-yl]methyl]-1,3-dihydropyrrolo[3,4-c]pyridine-2-carboxamide], the IC50 stood at 24.3 nM.

Take `CC(C)c1oncc1C(=O)N1CCC2(CC1)CC2CNC(=O)c1cc2ccncc2o1` (centres unmarked) [Example 318, N-[[6-(5-isopropylisoxazole-4-carbonyl)-6-azaspiro[2.5]octan-2-yl]methyl]furo[2,3-c]pyridine-2-carboxamide]: the IC50 came to 2000 nM.

As to `O=C(NCC1CC12CCN(C(=O)c1cc[nH]n1)CC2)c1cc2ccncc2o1` (centres unmarked) [Example 104, N-[[6-(1H-pyrazole-3-carbonyl)-6-azaspiro[2.5]octan-2-yl]methyl]furo[2,3-c]pyridine-2-carboxamide], the IC50 was 2000 nM.

Take `CN1CCN(Cc2ccccc2C(=O)N2CCC3(CC2)CC3CNC(=O)c2cc3ccncc3o2)CC1` (centres unmarked) [Example 87, N-[[6-[2-[(4-methylpiperazin-1-yl)methyl]benzoyl]-6-azaspiro[2.5]octan-2-yl]methyl]furo[2,3-c]pyridine-2-carboxamide]: the IC50 is 2000 nM.

As to `O=C(NCC1CC12CCN(C(=O)c1cn3cccnc3n1)CC2)c1cc2ccncc2o1` (centres unmarked) [Example 320, N-[[6-(imidazo[1,2-a]pyrimidine-2-carbonyl)-6-azaspiro[2.5]octan-2-yl]methyl]furo[2,3-c]pyridine-2-carboxamide], the IC50 turned out to be 549 nM.

Consider `O=C(NCC1CC12CCN(C(=O)c1cccc(Cn3cncn3)c1)CC2)c1cc2ccncc2o1` (centres unmarked) [Example 249, N-[[6-[3-(1,2,4-triazol-1-ylmethyl)benzoyl]-6-azaspiro[2.5]octan-2-yl]methyl]furo[2,3-c]pyridine-2-carboxamide], for which the IC50 was found to be 935 nM.

With `O=C1COc2ccc(C(=O)N3CCC4(CC3)CC4CNC(=O)c3cc4ccncc4o3)cc2N1` (centres unmarked) [Example 258, N-[[6-(3-oxo-4H-1,4-benzoxazine-6-carbonyl)-6-azaspiro[2.5]octan-2-yl]methyl]furo[2,3-c]pyridine-2-carboxamide], the IC50 came to 20.3 nM.

For `Cc1cc(C)n(CC(=O)N2CCC3(CC2)CC3CNC(=O)c2cc3ccncc3o2)n1` (centres unmarked) [Example 67, N-[[6-[2-(3,5-dimethylpyrazol-1-yl)acetyl]-6-azaspiro[2.5]octan-2-yl]methyl]furo[2,3-c]pyridine-2-carboxamidc], the IC50 is 193 nM.

Consider `Cc1cc(C)c(C(=O)N2CCC3(CC2)CC3CNC(=O)c2cc3ccncc3o2)cn1` (centres unmarked) [Example 281, N-[[6-(4,6-dimethylpyridine-3-carbonyl)-6-azaspiro[2.5]octan-2-yl)methyl]furo[2,3-c]pyridine-2-carboxamide], for which the IC50 worked out at 18.5 nM.

For the molecule `O=C(NCC1CC12CCN(C(=O)c1ccc(CN3CCCC3)cc1)CC2)c1cc2ccncc2o1` (centres unmarked) [Example 248, N-[[6-[4-(pyrrolidin-1-ylmethyl)benzoyl]-6-azaspiro[2.5]octan-2-yl]methyl]furo[2,3-c]pyridine-2-carboxamide], the IC50 was determined as 4.39 nM.

On to `Cn1nnc(-c2ccc(C(=O)N3CCC4(CC3)CC4CNC(=O)c3cc4ccncc4o3)cc2)n1` (centres unmarked) [Example 280], for which the IC50 came to 6.83 nM.

In the case of `Cc1n[nH]cc1C(=O)N1CCC2(CC1)CC2CNC(=O)c1cc2ccncc2o1` (centres unmarked) [Example 106, N-[[6-(3-methyl-1H-pyrazole-4-carbonyl)-6-azaspiro[2.5]octan-2-yl]methyl]furo[2,3-c]pyridine-2-carboxamide], the IC50 is 743 nM.

For the molecule `CS(=O)(=O)N1CCC(CC(=O)N2CCC3(CC2)CC3CNC(=O)c2cc3ccncc3o2)CC1` (centres unmarked) [Example 142, N-[[6-[2-(1-methylsulfonyl-4-piperidyl)acetyl]-6-azaspiro[2.5]octan-2-yl]methyl]furo[2,3-c]pyridine-2-carboxamide], the IC50 came to 97.1 nM.

As for `CN1CCN(CCC(=O)N2CCC3(CC2)CC3CNC(=O)c2cc3ccncc3o2)CC1` (centres unmarked) [Example 89, N-[[6-[3-(4-methylpiperazin-1-yl)propanoyl]-6-azaspiro[2.5]octan-2-yl]methyl]furo[2,3-c]pyridine-2-carboxamide], the IC50 was determined as 116 nM.
